Legend:
Assay in all cases: relative viability (nuclei count vs DMSO), 5 days (fraction); higher = more cells survive
BI-D1870 + Trametinib = compound: CC(C)CCN1c2nc(Nc3cc(F)c(O)c(F)c3)ncc2N(C)C(=O)C1C [BI-D1870] + CC(=O)Nc1cccc(-n2c(=O)n(C3CC3)c(=O)c3c(Nc4ccc(I)cc4F)n(C)c(=O)c(C)c32)c1 [Trametinib] (partner 0.02 µM)
In short: (§1)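 Nuclei were stained with Hoechst during a one-step fixation (final 0.05% Triton X-100, 1% formaldehyde, 1 ug/ml Hoechst) carried out 5 days after dosing, then counted on 4× images. The cells, lung cancer lines in 1536-well plates, had been dosed by pin tool the day after seeding with one drug alone or a fixed anchor-drug dose plus five library-drug doses (not always all listed) in √10 steps. Relative viability is the nuclei count in treated wells divided by that in vehicle wells, and each value is the median of duplicate plates.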

BI-D1870 + Luminespib = compound: CC(C)CCN1c2nc(Nc3cc(F)c(O)c(F)c3)ncc2N(C)C(=O)C1C [BI-D1870] + CCNC(=O)c1noc(-c2cc(C(C)C)c(O)cc2O)c1-c1ccc(CN2CCOCC2)cc1 [Luminespib] (partner 0.01 µM)
In short: as §1

Zebularine + Pictilisib = compound: O=c1ncccn1[C@@H]1O[C@H](CO)[C@@H](O)[C@H]1O [Zebularine] + CS(=O)(=O)N1CCN(Cc2cc3nc(-c4cccc5[nH]ncc45)nc(N4CCOCC4)c3s2)CC1 [Pictilisib] (partner 1 µM)
In short: as §1

Zebularine + Olaparib = compound: O=c1ncccn1[C@@H]1O[C@H](CO)[C@@H](O)[C@H]1O [Zebularine] + O=C(c1cc(Cc2n[nH]c(=O)c3ccccc23)ccc1F)N1CCN(C(=O)C2CC2)CC1 [Olaparib] (partner 8 µM)
In short: as §1

Row | Cell Line | relative viability (BI-D1870 + Trametinib; first compound 0.04 µM) | relative viability (BI-D1870 + Trametinib; first compound 0.1265 µM) | relative viability (BI-D1870 + Trametinib; first compound 0.4 µM) | relative viability (BI-D1870 + Trametinib; first compound 1.265 µM) | relative viability (BI-D1870 + Trametinib; first compound 4 µM) | relative viability (BI-D1870 + Luminespib; first compound 0.04 µM) | relative viability (BI-D1870 + Luminespib; first compound 0.1265 µM) | relative viability (BI-D1870 + Luminespib; first compound 0.4 µM) | relative viability (BI-D1870 + Luminespib; first compound 1.265 µM) | relative viability (BI-D1870 + Luminespib; first compound 4 µM) | relative viability (Zebularine + Pictilisib; first compound 1 µM) | relative viability (Zebularine + Pictilisib; first compound 3.162 µM) | relative viability (Zebularine + Pictilisib; first compound 10 µM) | relative viability (Zebularine + Pictilisib; first compound 31.62 µM) | relative viability (Zebularine + Pictilisib; first compound 100 µM) | relative viability (Zebularine + Olaparib; first compound 1 µM) | relative viability (Zebularine + Olaparib; first compound 3.162 µM) | relative viability (Zebularine + Olaparib; first compound 10 µM) | relative viability (Zebularine + Olaparib; first compound 31.62 µM) | relative viability (Zebularine + Olaparib; first compound 100 µM)
1 | NCI-H2347 | 0.302 | 0.26 | 0.273 | 0.296 | 0.322 | 0.738 | 0.376 | 0.367 | 0.48 | 0.402 | 0.8 | 0.529 | 0.439 | 0.558 | 0.462 | 0.565 | 0.566 | 0.531 | 0.385 | 0.358
2 | NCI-H2405 | 0.683 | 0.595 | 0.586 | 0.67 | 0.601 | 0.711 | 0.577 | 0.68 | 0.883 | 0.54 | 0.476 | 0.474 | 0.399 | 0.387 | 0.409 | 0.905 | 0.782 | 0.533 | 0.564 | 0.511
3 | NCI-H3122 | 0.234 | 0.202 | 0.234 | 0.25 | 0.279 | 0.0791 | 0.0919 | 0.0942 | 0.11 | 0.124 | 0.669 | 0.575 | 0.575 | 0.613 | 0.593 | 0.727 | 0.631 | 0.358 | 0.478 | 0.369
4 | PC-3 [JPC-3] | 0.751 | 0.701 | 0.632 | 0.762 | 0.576 | 0.783 | 0.645 | 0.717 | 0.825 | 0.677 | 0.745 | 0.612 | 0.538 | 0.738 | 0.478 | 1.18 | 0.984 | 0.675 | 0.673 | 0.593
5 | PC-14 | 0.864 | 0.534 | 0.788 | 0.498 | 0.243 | 0.237 | 0.279 | 0.126 | 0.233 | 0.119 | 0.767 | 0.574 | 0.151 | 0.111 | 0.0955 | 0.179 | 0.121 | 0.208 | 0.136 | 0.122
6 | RERF-LC-KJ | 0.901 | 0.752 | 0.863 | 0.837 | 0.693 | 1.42 | 1.16 | 1.22 | 1.3 | 0.552 | 0.662 | 0.485 | 0.348 | 0.565 | 0.474 | 0.989 | 0.874 | 0.655 | 1.03 | 0.845
7 | SK-LU-1 | 0.553 | 0.403 | 0.372 | 0.515 | 0.408 | 0.178 | 0.17 | 0.207 | 0.224 | 0.179 | 0.63 | 0.495 | 0.393 | 0.501 | 0.31 | 0.434 | 0.351 | 0.333 | 0.313 | 0.289
8 | SK-MES-1 | 0.541 | 0.532 | 0.518 | 0.471 | 0.307 | 0.904 | 0.649 | 0.66 | 0.535 | 0.251 | 0.375 | 0.399 | 0.294 | 0.346 | 0.203 | 0.947 | 0.722 | 0.479 | 0.393 | 0.268
9 | SW 1573 | 0.595 | 0.528 | 0.552 | 0.497 | 0.318 | 0.219 | 0.172 | 0.297 | 0.191 | 0.143 | 0.576 | 0.505 |  | 0.471 | 0.377 | 0.487 | 0.442 | 0.33 | 0.46 | 0.325

Source: the supplement of paper PMC10307832
